Measured values taken from paper PMC5830302 (ACS chemical biology, 2017).

Target: ClbQ (Escherichia coli, UniProt Q0P7K7)
Experiment: DTNB-based continuous spectrophotometric thioesterase assay
Format: biochemical
Details: 100 mM Tris HCl, pH 7.4, 20 mM NaCl, 100 uM DTNB, 100 nM ClbQ, 37 °C

| SMILES | DTNB-based continuous spectrophotometric thioesterase assay (412 nm) |
| --- | --- |
| CC(=O)NCCSC(C)=O [acetyl-SNAC] | ClbQ has thioesterase activity with model straight-chain acyl-SNACs |
| CCCCCCCCCCCCCC(=O)SCCNC(C)=O [myristoyl-SNAC] | ClbQ has thioesterase activity with model straight-chain acyl-SNACs |
